Assays:
Assay type in all cases: cell-based
IKCa channel (KCa3.1) [1] = target: T1, IKCa channel (KCa3.1) (Homo sapiens, UniProt O15554); assay: cell-attached single-channel recording; […] DCEBIO raised open probability in presence of MDZ
T1 construct: gene KCNN4; native channel in Jurkat T-lymphocytes

[2] = target: T2, KV1.3 (delayed-rectifier K+ channel, IK(DR)) (Homo sapiens, UniProt P22001); assay: whole-cell patch clamp of native IK(DR), concentration-response (kinetic KD […])
T2 construct: gene KCNA3; native channel in Jurkat T-lymphocytes
T2 sequence (P22001 whole entry): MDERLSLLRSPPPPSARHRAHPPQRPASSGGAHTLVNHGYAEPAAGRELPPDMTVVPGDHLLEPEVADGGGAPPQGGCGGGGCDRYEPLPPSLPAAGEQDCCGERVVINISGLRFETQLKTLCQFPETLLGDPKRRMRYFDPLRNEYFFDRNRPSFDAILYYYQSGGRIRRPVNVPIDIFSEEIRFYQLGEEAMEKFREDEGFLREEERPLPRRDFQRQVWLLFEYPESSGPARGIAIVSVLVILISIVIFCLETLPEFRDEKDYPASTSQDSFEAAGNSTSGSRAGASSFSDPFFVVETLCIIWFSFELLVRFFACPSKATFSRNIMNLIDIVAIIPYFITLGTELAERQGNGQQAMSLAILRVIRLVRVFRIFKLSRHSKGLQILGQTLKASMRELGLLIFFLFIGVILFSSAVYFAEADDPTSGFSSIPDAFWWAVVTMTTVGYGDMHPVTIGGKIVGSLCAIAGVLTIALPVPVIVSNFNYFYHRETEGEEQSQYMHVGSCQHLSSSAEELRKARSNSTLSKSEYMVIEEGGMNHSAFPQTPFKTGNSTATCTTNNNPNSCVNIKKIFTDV

IKCa channel (KCa3.1) [3] = target: T1, IKCa channel (KCa3.1); assay: cell-attached single-channel recording; open probability decreased at […]; conditions: read-out: % decrease of open probability at 30 μM

T1 sequence (O15554 whole entry): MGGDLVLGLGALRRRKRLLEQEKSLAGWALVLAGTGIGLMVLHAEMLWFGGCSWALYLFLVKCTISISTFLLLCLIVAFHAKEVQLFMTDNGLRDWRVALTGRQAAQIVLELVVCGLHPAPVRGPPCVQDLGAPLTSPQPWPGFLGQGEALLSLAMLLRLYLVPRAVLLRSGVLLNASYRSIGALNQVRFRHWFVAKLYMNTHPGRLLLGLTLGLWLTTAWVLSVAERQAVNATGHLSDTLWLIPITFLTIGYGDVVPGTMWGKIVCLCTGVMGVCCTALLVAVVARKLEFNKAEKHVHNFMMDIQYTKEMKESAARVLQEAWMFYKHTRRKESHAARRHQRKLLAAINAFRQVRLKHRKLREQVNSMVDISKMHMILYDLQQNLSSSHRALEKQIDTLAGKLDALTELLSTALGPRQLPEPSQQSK

Row | Structure (SMILES) | cell-attached single-channel recording; 3 μM DCEBIO raised open probability in p (IKCa channel (KCa3.1) [1]) | IC50 [2] [µM] | inhibition at 30 µM (IKCa channel (KCa3.1) [3]) [%]
1 | CCn1c(=O)[nH]c2cc(Cl)c(Cl)cc21 [DCEBIO, 5,6-dichloro-1-ethyl-1,3-dihydro-2H-benzimidazol-2-one] | 0.121 ± 0.006 open probability (with 3 µM DCEBIO plus 30 µM MDZ) |  | 
2 | Cc1ncc2n1-c1ccc(Cl)cc1C(c1ccccc1F)=NC2 [MDZ, 8-chloro-6-(2-fluorophenyl)-1-methyl-4H-imidazo [1,5-a][1,4] benzodiazepine] |  | 5.87 | 85.7 ± 2.5
